Laboratory results from patent US5495032A, “Process for producing 7-(substituted)-8-(substituted-9-[(substituted glycyl)amido]-6-demethyl-6-deoxytetracyclines” (priority 1994, dated 1996).
Structures can show the parent of a compound that is named as a salt. Where two headings read alike, the source gives them in different places.

Key:
Type in all cases: cell-based
E. coli J2175 = assay: MIC, agar dilution method; conditions: 18 hours at 35° C.
S. aureus ROSE (MP) = assay: MIC, agar dilution method; conditions: 18 hours at 35° C.
S. aureus IVES 2943 = assay: MIC, agar dilution method
S. aureus UBMS 88-4 = assay: MIC, agar dilution method
E. coli J3272 Tet D = assay: microbe, parasite or virus in culture
E. coli J3272 Tet C = assay: microbe, parasite or virus in culture
E. coli UBMS 90-4 Tet M = assay: microbe, parasite or virus in culture; conditions: 18 hours at 35° C.
[1] = system: X. maltophilia NEMC 87210; assay: MIC, agar dilution method
S. aureus NEMC 8769 = assay: MIC, agar dilution method
E. coli ATCC 25922 = assay: MIC, agar dilution method
E. coli BAJ9003 IMP MUT = assay: microbe, parasite or virus in culture; conditions: 18 hours at 35° C.
S. aureus SMITH (MP) = assay: MIC, agar dilution method; conditions: 18 hours at 35° C.
[2] = system: S. aureus UBMS 90-2 Tet M; assay: microbe, parasite or virus in culture; conditions: 18 hours at 35° C.
S. aureus ATCC 29213 = assay: MIC, agar dilution method; conditions: 18 hours at 35° C.
E. coli UBMS 90-5 sens = assay: MIC, agar dilution method; conditions: 18 hours at 35° C.
S. aureus IVES 1 983 = assay: MIC, agar dilution method
[3] = system: S. aureus UBMS 88-5 Tet M; assay: microbe, parasite or virus in culture
S. aureus UBMS 90-3 = assay: MIC, agar dilution method
E. coli UBMS 88-1 Tet B = assay: microbe, parasite or virus in culture; conditions: 18 hours at 35° C.
Enterococcus 12201 = assay: MIC, agar dilution method; conditions: 18 hours at 35° C.
[4] = system: S. aureus UBMS 88-7 Tet K; assay: microbe, parasite or virus in culture; conditions: 18 hours at 35° C.
E. faecalis ATCC 29212 = assay: MIC, agar dilution method
[5] = system: E. coli MC 4100 Tet sens.; assay: MIC, agar dilution method; conditions: 18 hours at 35° C.
[6] = system: Ps. acruginosa ATCC 27853; assay: MIC, agar dilution method; conditions: Ps. acruginosa ATCC 27853, 18 hours at 35° C.
[7] = system: S. hemolyticus AVHAH 88-3; assay: MIC, agar dilution method
[8] = system: S. aureus UBMS 90-1 Tet M; assay: microbe, parasite or virus in culture; conditions: 18 hours at 35° C.
E. coli UBMS 89-1 Tet M = assay: microbe, parasite or virus in culture; conditions: 18 hours at 35° C.
[9] = system: E. coli MC 4100 TNIOC Tet B; assay: microbe, parasite or virus in culture; conditions: 18 hours at 35° C.
S. mariescens FPOR 8733 = assay: MIC, agar dilution method; conditions: 18 hours at 35° C.
E. coli #311 (MP) = assay: MIC, agar dilution method; conditions: 18 hours at 35° C.
E. coli PRP1 Tet A = assay: microbe, parasite or virus in culture; conditions: 18 hours at 35° C.
[10] = system: E. coli UBMS 89-2 Tet sens; assay: MIC, agar dilution method; conditions: 18 hours at 35° C.
[11] = Escherichia coli, read-out: MIC

Q: For `CCCNCC(=O)Nc1c(Cl)cc2c(c1O)C(=O)C1=C(O)[C@]3(O)C(=O)C(C(N)=O)=C(O)[C@@H](N(C)C)C3CC1C2` (stereo partly drawn) [F, [4S-(4α,12aα)]-8-Chloro-4-(dimethylamino)-1,4,4a,5,5a,6,11,12a-octahydro-3,10,12,12a-tetrahydroxy-1,11-dioxo-9-[[(propylamino)acetyl]amino]-2-naphthacenecarboxamide dihydrochloride], which MIC (E. coli J2175; [11]) is on record?
A: 1 µg/mL

Q: What about the MIC (S. aureus ROSE (MP); Staphylococcus aureus, 18 h) of the same compound?
A: 16 µg/mL

Q: And the MIC (S. aureus IVES 2943; Staphylococcus aureus, IVES2943, 18 h)?
A: 16 µg/mL

Q: And the MIC (S. aureus UBMS 88-4; Staphylococcus aureus, UBMS884, 18 hours at 35° C., read-out: MIC)?
A: 0.25 µg/mL

Q: What about the MIC (E. coli J3272 Tet D; Escherichia coli, J3272TETD, 18 h) of the same compound?
A: 0.25 µg/mL

Q: And the MIC (E. coli J3272 Tet C; Escherichia coli, J3272TETC, 18 h)?
A: 1 µg/mL

Q: And the MIC (E. coli UBMS 90-4 Tet M; Escherichia coli, UBMS904TETM, 18 h)?
A: 0.5 µg/mL

Q: What about the MIC ([1]; Stenotrophomonas maltophilia, NEMC87210, 18 hours at 35° C., read-out: MIC) of the same compound?
A: 2 µg/mL

Q: And the MIC (S. aureus NEMC 8769; Staphylococcus aureus, NEMC8769, 18 h)?
A: 0.25 µg/mL

Q: What about the MIC (E. coli ATCC 25922; Escherichia coli, ATCC25922, 18 hours at 35° C., read-out: MIC) of the same compound?
A: 0.5 µg/mL

Q: And the MIC (E. coli BAJ9003 IMP MUT; Escherichia coli, BAJ9003IMPMUT, 18 h)?
A: 0.12 µg/mL

Q: And the MIC (S. aureus SMITH (MP); Staphylococcus aureus, 18 h)?
A: 0.25 µg/mL

Q: What about the MIC ([2]; Staphylococcus aureus, UBMS902TETM, 18 h) of the same compound?
A: 0.25 µg/mL

Q: What about the MIC (S. aureus ATCC 29213; Staphylococcus aureus, ATCC29213, 18 h) of the same compound?
A: 0.25 µg/mL

Q: What about the MIC (E. coli UBMS 90-5 sens; Escherichia coli, UBMS905SENS, read-out: MIC) of the same compound?
A: 0.5 µg/mL

Q: What about the MIC (S. aureus IVES 1 983; Staphylococcus aureus, IVES1983, 18 h) of the same compound?
A: 8 µg/mL

Q: And the MIC ([3]; Staphylococcus aureus, UBMS885TETM, 18 h)?
A: 0.5 µg/mL

Q: What about the MIC (S. aureus UBMS 90-3; Staphylococcus aureus, UBMS903, 18 h) of the same compound?
A: 0.5 µg/mL

Q: And the MIC (E. coli UBMS 88-1 Tet B; Escherichia coli, UBMS881TETB, 18 h)?
A: 0.5 µg/mL

Q: And the MIC (Enterococcus 12201; Enterococcus, 12201, 18 h)?
A: 0.25 µg/mL

Q: What about the MIC ([4]; Staphylococcus aureus, UBMS887TETK, 18 h) of the same compound?
A: 8 µg/mL

Q: And the MIC (E. faecalis ATCC 29212; Enterococcus faecalis, ATCC29212, 18 hours at 35° C., read-out: MIC)?
A: 0.12 µg/mL

Q: What about the MIC [5, 11] of the same compound?
A: 0.12 µg/mL

Q: What about the MIC ([6]; read-out: MIC) of the same compound?
A: 32 µg/mL

Q: What about the MIC ([7]; Streptococcus pyogenes, AVHAH883, 18 hours at 35° C., read-out: MIC) of the same compound?
A: 4 µg/mL

Q: What about the MIC ([8]; Staphylococcus aureus, UBMS901TETM, 18 h) of the same compound?
A: 0.5 µg/mL

Q: What about the MIC (E. coli UBMS 89-1 Tet M; Escherichia coli, UBMS891TETM, 18 h) of the same compound?
A: 0.5 µg/mL

Q: What about the MIC ([9]; Escherichia coli, 18 h) of the same compound?
A: 0.5 µg/mL

Q: And the MIC (S. mariescens FPOR 8733; read-out: MIC)?
A: 8 µg/mL

Q: What about the MIC (E. coli #311 (MP); [11]) of the same compound?
A: 0.5 µg/mL

Q: And the MIC (E. coli PRP1 Tet A; Escherichia coli, PRP1TETA, 18 h)?
A: 4 µg/mL

Q: And the MIC ([10]; Escherichia coli, UBMS892TETSENS, 18 h, read-out: MIC)?
A: 1 µg/mL

Q: Which results are given for `CN(C)C1C(O)=C(C(N)=O)C(=O)C2(O)C(O)=C3C(=O)c4c(cc(Cl)c(NC(=O)CNCC5CC5)c4O)CC3CC12.Cl.Cl` (stereo not drawn) [G, [4S-(4α,12aα)]-8-Chloro-9-[[(cyclopropylmethylamino)acetyl]amino]-4-(dimethylamino)-1,4,4a,5,5a,6,11,12a-octahydro-3,10,12,12a-tetrahydroxy-1,11-dioxo-2-naphthacenecarboxamide dihydrochloride]?
A: MIC (E. coli J2175): 1 µg/mL; MIC (S. aureus ROSE (MP)): 32 µg/mL; MIC (S. aureus IVES 2943; S. aureus IVES 2943, 18 hours at 35° C.): 16 µg/mL; MIC (S. aureus UBMS 88-4; 18 hours at 35° C.): 0.5 µg/mL; MIC (E. coli J3272 Tet D; E. coli J3272 Tet D, 18 hours at 35° C.): 1 µg/mL; MIC (E. coli J3272 Tet C; E. coli J3272 Tet C, 18 hours at 35° C.): 1 µg/mL; MIC (E. coli UBMS 90-4 Tet M): 1 µg/mL; MIC ([1]; 18 hours at 35° C.): 4 µg/mL; MIC (S. aureus NEMC 8769; S. aureus NEMC 8769, 18 hours at 35° C.): 0.5 µg/mL; MIC (E. coli ATCC 25922; 18 hours at 35° C.): 1 µg/mL; MIC (E. coli BAJ9003 IMP MUT): 0.12 µg/mL; MIC (S. aureus SMITH (MP)): 0.5 µg/mL; MIC [2]: 0.5 µg/mL; MIC (S. aureus ATCC 29213): 0.25 µg/mL; MIC (E. coli UBMS 90-5 sens): 1 µg/mL; MIC (S. aureus IVES 1 983; S. aureus IVES 1 983, 18 hours at 35° C.): 16 µg/mL; MIC ([3]; S. aureus UBMS 88-5 Tet M, 18 hours at 35° C.): 0.5 µg/mL; MIC (S. aureus UBMS 90-3; S. aureus UBMS 90-3, 18 hours at 35° C.): 0.12 µg/mL; MIC (E. coli UBMS 88-1 Tet B): 1 µg/mL; MIC (Enterococcus 12201): 0.25 µg/mL; MIC [4]: 8 µg/mL; MIC (E. faecalis ATCC 29212; 18 hours at 35° C.): 0.25 µg/mL; MIC [5]: 0.25 µg/mL; MIC [6]: 32 µg/mL; MIC ([7]; 18 hours at 35° C.): 8 µg/mL; MIC [8]: 2 µg/mL; MIC (E. coli UBMS 89-1 Tet M): 0.5 µg/mL; MIC [9]: 1 µg/mL; MIC (S. mariescens FPOR 8733): 8 µg/mL; MIC (E. coli #311 (MP)): 1 µg/mL; MIC (E. coli PRP1 Tet A): 4 µg/mL; MIC [10]: 1 µg/mL
